Laboratory results reported in patent US8722896B2, “Prokineticin receptor antagonists and uses thereof” (The Regents of the University of California, priority 2008, dated 2014).

Test system: not listed separately
Test: Glucose tolerance test (GTT), mice fed regular chow
Type: in vivo
Settings: 0, 1, 4, 12 and 40 mg/kg of body weight (FIG. 1B)
Protocol: (§1) The compound (3R)-1-Benzyl-N-(9-chloro-3,4-dihydro-2H-1,5-benzodioxepin-7-ylmethyl)-N-isobutyl pyrrolidine-3-carboxamide (3Cl-R-PLP) was dissolved in PEG-400 and then resuspended in water with 8% final concentration of PEG-400.8% PEG-400 in water without drug was used as vehicle. Mice were fed with regular chow. Drug or vehicle was gavaged to mice that were fasted overnight. Two hours later, glucose (2 g/kg of body weight) was injected i.p. and whole venous blood obtained from the tail vein at 0, 15, 30, 90 and 120 min after the injection was measured for glucose by using an automatic glucometer (one Touch, Lifescan, Daly, Calif.).

| Compound | dose dependence of performance in GTT |
| --- | --- |
| CC(C)CN(Cc1cc(Cl)c2c(c1)OCCCO2)C(=O)[C@@H]1CCN(Cc2ccccc2)C1 [Example 15, (3R)-1-Benzyl-N-(9-chloro-3,4-dihydro-2H-1,5-benzodioxepin-7-ylmethyl)-N-isobutyl pyrrolidine-3-carboxamide] | dose-dependent effect |

Same assay, conditions: 4 mg/kg of body weight, gavage 2 h before glucose 2 g/kg i.p., fasted mice, regular chow (FIG. 1A)

| Compound | glucose clearance in GTT |
| --- | --- |
| CC(C)CN(Cc1cc(Cl)c2c(c1)OCCCO2)C(=O)[C@@H]1CCN(Cc2ccccc2)C1 [Example 15, (3R)-1-Benzyl-N-(9-chloro-3,4-dihydro-2H-1,5-benzodioxepin-7-ylmethyl)-N-isobutyl pyrrolidine-3-carboxamide] | improved glucose clearance significantly |

Test system: not listed separately
Test: GTT in mice fed high-fat diet (diet-induced hyperglycemia)
Type: in vivo
Settings: 40 mg/kg body weight, mice on high fat diet 8 weeks (FIG. 2)
Protocol: as §1
High fat diet was fed to mice for 8 weeks to induced diet-induced hyperglycemia. GTT test was carried out as described earlier.

| Compound | glucose clearance in GTT |
| --- | --- |
| CC(C)CN(Cc1cc(Cl)c2c(c1)OCCCO2)C(=O)[C@@H]1CCN(Cc2ccccc2)C1 [Example 15, (3R)-1-Benzyl-N-(9-chloro-3,4-dihydro-2H-1,5-benzodioxepin-7-ylmethyl)-N-isobutyl pyrrolidine-3-carboxamide] | significantly improved glucose clearance |

Test system: not listed separately
Test: Chronic treatment in db/db mice, glucose levels
Type: in vivo
Settings: 0.1 mg/mL in drinking water, 2 weeks, 10-week old db/db mice, fed and fasting conditions (FIG. 4)
Protocol: Db/db mice are commonly used as genetic models of type II diabetes. 10-week old db/db mice were treated with 3Cl-R-PLP (0.1 mg/mL in drinking water) or vehicle for 2 weeks.

| Compound | glucose levels |
| --- | --- |
| CC(C)CN(Cc1cc(Cl)c2c(c1)OCCCO2)C(=O)[C@@H]1CCN(Cc2ccccc2)C1 [Example 15, (3R)-1-Benzyl-N-(9-chloro-3,4-dihydro-2H-1,5-benzodioxepin-7-ylmethyl)-N-isobutyl pyrrolidine-3-carboxamide] | significantly decreased glucose levels |

Biological target: recombinant PKR1 (Homo sapiens (Human), UniProt Q8TCW9)
Test: Aequorin-based Ca2+ mobilization antagonist assay, CHO cells expressing PKR1
Type: cell-based
Settings: not given
Protocol: An aequorin-based luminescent assay for calcium mobilization was used to measure mobilization of intracellular Ca^2+ (Bullock et al., Mol Pharmacol 65, 582-588, 2004). Chinese hamster ovary (CHO) cells stably expressing photoprotein aequorin and recombinant PKR1 or PKR2 were tested by this method. Briefly, the cells were charged in Opti-MEM (Invitrogen) containing 8 μM of coelenterazine cp at 37° C. for 2 hours. Cells were detached by brief typsinization and maintained in Hank's Balanced Salt Solution (HBSS) plus 10 mM HEPES (pH7.5) and 0.1% BSA at about 5×10^5 cells/ml. Luminescence measurements were made using a Berthold luminometer.
All compounds were diluted in HBSS plus 10 mM HEPES (pH7.5) and 0.1% BSA. To test the agonist activity, 100 μl of cells were injected into the tubes with 20 μl of compounds. For antagonist assays, 80 μl cells were incubated in the tubes with 20 μl different concentrations of antagonists at room temperature for 20 minutes, and then 100 μl of recombinant PK2 were injected. The IC50 obtained from the assays were then converted to Ki values using the formula: IC50/(1+[PK2]/EC50PK2).
The following compounds were prepared using the above synthetic routes and protocols by varying the starting materials, reagents or conditions used. The requisite reagents were either commercially available, described in the literature, or readily synthesized by one skilled in the art. The potency of these compounds in antagonizing PK2-stimulated calcium mobilization were tested in Chinese hamster ovary (CHO) cells that stably express recombinant PKR1 or PKR2.

| Compound | Ki |
| --- | --- |
| CC(C)CN(Cc1cc(Cl)c2c(c1)OCCCO2)C(=O)C(C)CNCc1cccc2c1OCO2 (centres unmarked) | 44.8 nM |
| CC(C)CN(Cc1cc(Cl)c2c(c1)OCCCO2)C(=O)C(C)CNCc1cccc2ccn(C)c12 (centres unmarked) | 16.5 nM |
| CC(C)CN(Cc1cc(Cl)c2c(c1)OCCCO2)C(=O)[C@H](C)CNCc1cc(F)c(F)cc1F | 258 nM |
| CC(C)CN(Cc1cc(Cl)c2c(c1)OCCCO2)C(=O)C(C)CNCc1cccc2c1OCCO2 (racemic) | 58.4 nM |
| CC(C)CN(Cc1cc(Cl)c2c(c1)OCCCO2)C(=O)C1CCN(Cc2ccccc2)O1 (racemic) | 2200 nM |
| CCc1c(C)cccc1CNCC(C)C(=O)N(Cc1cc(Cl)c2c(c1)OCCCO2)CC(C)C (racemic) | 226 nM |
| Cc1ccc(C)c(CN2CCOC(C(=O)N(Cc3cc(Cl)c4c(c3)OCCCO4)CC(C)C)C2)c1 (racemic) | 83 nM |
| Cc1cccc(C)c1CNCC(C)C(=O)N(Cc1cc(Cl)c2c(c1)OCCCO2)CC(C)C (racemic) | 44 nM |
| Cc1cccc(CNCC(C)C(=O)N(Cc2cc(Cl)c3c(c2)OCCCO3)CC(C)C)c1 (racemic) | 44.2 nM |
| Cc1cccc(CNCC(C)C(=O)N(Cc2cc(Cl)c3c(c2)OCCCO3)CC(C)C)c1C (racemic) | 13 nM |
| Cc1ccccc1CNCC(C)C(=O)N(Cc1cc(Cl)c2c(c1)OCCCO2)CC(C)C (racemic) | 19.6 nM |

Continued, values first:

| Ki | Compound |
| --- | --- |
| 9.42 nM | CC(C)CN(Cc1cc(Cl)c2c(c1)CCCCO2)C(=O)[C@@H]1CCCN(Cc2cccc3ccn(C)c23)C1 |
| 11.6 nM | CC(C)CN(Cc1cc(Cl)c2c(c1)CCCCO2)C(=O)[C@@H]1CCN(Cc2cccc3c2ccn3C)C1 |
| 38 nM | CC(C)CN(Cc1cc(Cl)c2c(c1)OCCCO2)C(=O)[C@@H]1CCCN(Cc2cccc3[nH]ccc23)C1 |
| 3.29 nM | CC(C)CN(Cc1cc(Cl)c2c(c1)OCCCO2)C(=O)[C@@H]1CCCN(Cc2cccc3c2NCC3)C1 |
| 24 nM | CC(C)CN(Cc1cc(Cl)c2c(c1)OCCCO2)C(=O)[C@@H]1CCN(Cc2ccc(F)c(N)c2)C1 |
| 133 nM | CC(C)CN(Cc1cc(Cl)c2c(c1)OCCCO2)C(=O)[C@@H]1CCN(Cc2cccc(N)c2)C1 |
| 226 nM | CCc1c(C)cccc1CN1CC[C@@H](C(=O)N(Cc2cc(Cl)c3c(c2)OCCCO3)CC(C)C)C1 |
| 88.8 nM | CCc1cccc(CN2CC[C@@H](C(=O)N(Cc3cc(Cl)c4c(c3)OCCCO4)CC(C)C)C2)c1 |
| 38.8 nM | COc1ccccc1CN1CCC[C@@H](C(=O)N(Cc2cc(Cl)c3c(c2)OCCCO3)CC(C)C)C1 |
| 38.6 nM | COc1ccccc1CN1CCC[C@@H](C(=O)N(Cc2ccc3c(c2)OCCCO3)CC(C)C)C1 |
| 12.8 nM | COc1ccccc1CN1CC[C@@H](C(=O)N(Cc2ccc3c(c2)OCCCO3)CC(C)C)C1 |
| 29.4 nM | Cc1cccc(CN2CCC[C@@H](C(=O)N(Cc3cc(Cl)c4c(c3)OCCCO4)CC(C)C)C2)c1 |
| 4.02 nM | CC(C)CN(Cc1cc(Cl)c2c(c1)CCCCO2)C(=O)C1CN(Cc2cccc3cc[nH]c23)CCO1 (racemic) |
| 9.94 nM | CC(C)CN(Cc1cc(Cl)c2c(c1)CCCCO2)C(=O)C1CN(Cc2cccc3ccn(C)c23)CCO1 (racemic) |
| 12.5 nM | CC(C)CN(Cc1cc(Cl)c2c(c1)OCCCO2)C(=O)C1CN(Cc2cccc3c2ccn3C)CCO1 (racemic) |
| 24.4 nM | CC(C)CN(Cc1cc(Cl)c2c(c1)OCCCO2)C(=O)C1CN(Cc2cccc3ccn(C)c23)CCO1 (racemic) |
| 37.4 nM | Cc1ccccc1CN1CCOC(C(=O)N(Cc2cc(Cl)c3c(c2)OCCCO3)CC(C)C)C1 (racemic) |

Same assay, conditions: antagonism of PK2-stimulated calcium mobilization in CHO cells; Ki = IC50/(1+[PK2]/EC50PK2); read-out: Ki for PKR1

| Compound | Ki |
| --- | --- |
| COc1cc(F)ccc1CNCC(C)C(=O)N(Cc1cc(Cl)c2c(c1)OCCCO2)CC(C)C (racemic) [(±)-2-Methyl-3-((2-methoxy-4-fluoro)benzylamino)-N-(9-chloro-3,4-dihydro-2H-1,5-benzodioxepin-7-ylmethyl)-N-isobutylpropanamide] | 50 nM |
| COc1cc(CNCC(C)C(=O)N(Cc2cc(Cl)c3c(c2)OCCCO3)CC(C)C)ccc1F (racemic) [(±)-2-Methyl-3-((3-methoxy-4-fluoro)benzylamino)-N-(9-chloro-3,4-dihydro-2H-1,5-benzodioxepin-7-ylmethyl)-N-isobutylpropanamide] | 11.6 nM |
| CC(=O)Oc1cccc(CN2CCOC(C(=O)N(Cc3cc(Cl)c4c(c3)OCCCO4)CC(C)C)C2)c1 (racemic) [(±)-(3R)-1-(3-acetoxybenzyl)-N-(9-chloro-3,4-dihydro-2H-1,5-benzodioxepin-7-ylmethyl)-N-isobutylmorpholine-3-carboxamide] | 8.5 nM |
| CC(C)CN(Cc1cnc2c(c1)OCCCO2)C(=O)C1CCCN(Cc2cccc3cc[nH]c23)C1 (single isomer, unassigned; (-)) | 104 nM |
| CC(=O)Oc1cccc(CN2CCC[C@@H](C(=O)N(Cc3cc(Cl)c4c(c3)OCCCO4)CC(C)C)C2)c1 [(−)-(3R)-1-(3-acetoxybenzyl)-N-(9-chloro-3,4-dihydro-2H-1,5-benzodioxepin-7-ylmethyl)-N-isobutylpiperidine-3-carboxamide] | 107 nM |
| CC(C)CN(Cc1cc(Cl)c2c(c1)OCC(F)(F)CO2)C(=O)[C@@H]1CCN(Cc2ccccc2)C1 [(−)-(3R)-1-Benzyl-N-(9-chloro-3,3-difluoro-3,4-dihydro-2H-1,5-benzodioxepin-7-ylmethyl)-N-isobutylpyrrolidine-3-carboxamide] | 224 nM |

Other lines, results leading:

| Ki | Compound |
| --- | --- |
| 65.2 nM | COc1cc(F)ccc1CN1CCC[C@@H](C(=O)N(Cc2cc(Cl)c3c(c2)OCCCO3)CC(C)C)C1 [(−)-(3R)-1-(4-Fluoro-2-methoxybenzyl)-N-(9-chloro-3,4-dihydro-2H-1,5-benzodioxepin-7-ylmethyl)-N-isobutylpiperidine-3-carboxamide] |
| 7.72 nM | COc1cc(F)ccc1CN1CC[C@@H](C(=O)N(Cc2cc(Cl)c3c(c2)OCCCO3)CC(C)C)C1 [(−)-(3R)-1-(4-Fluoro-2-methoxybenzyl)-N-(9-chloro-3,4-dihydro-2H-1,5-benzodioxepin-7-ylmethyl)-N-isobutylpyrrolidine-3-carboxamide] |
| 8.68 nM | COc1cc(CN2CCC[C@@H](C(=O)N(Cc3cc(Cl)c4c(c3)OCCCO4)CC(C)C)C2)ccc1F [(−)-(3R)-1-(4-Fluoro-3-methoxybenzyl)-N-(9-chloro-3,4-dihydro-2H-1,5-benzodioxepin-7-ylmethyl)-N-isobutylpiperidine-3-carboxamide] |
| 9.66 nM | COc1cc(CN2CC[C@@H](C(=O)N(Cc3cc(Cl)c4c(c3)OCCCO4)CC(C)C)C2)ccc1F [(−)-(3R)-1-(4-Fluoro-3-methoxybenzyl)-N-(9-chloro-3,4-dihydro-2H-1,5-benzodioxepin-7-ylmethyl)-N-isobutylpyrrolidine-3-carboxamide] |
| 87.3 nM | CC(C)CN(Cc1cc(Cl)c2c(c1)OCCCO2)C(=O)[C@@H]1CCCN(Cc2cccc3c2N(C)CC3)C1 [(−)-(3R)-1-(N-methyl-indolin-7-ylmethyl)-N-(9-chloro-3,4-dihydro-2H-1,5-benzodioxepin-7-ylmethyl)-N-isobutylpiperidine-3-carboxamide] |

Test system: not listed separately
Test: Chronic treatment in diet-induced diabetes model, circulating glucose
Type: in vivo, mice
Settings: 0.1 and 0.01 mg/ml in drinking water for two weeks; measured 3, 7 and 14 days; high-fat diet 8 weeks (FIG. 3)
Protocol: Diet-induced diabetes models were created by feeding with high-fat diet for 8 weeks. These mice developed glucose intolerance and hyperglycemia. 3Cl-R-PLP was dissolved in drinking water and given to mice for two weeks. Circulating glucose levels were measured 3, 7 and 14 days after 3Cl-R-PLP treatment.

| Compound | circulating glucose levels |
| --- | --- |
| CC(C)CN(Cc1cc(Cl)c2c(c1)OCCCO2)C(=O)[C@@H]1CCN(Cc2ccccc2)C1 [Example 15, (3R)-1-Benzyl-N-(9-chloro-3,4-dihydro-2H-1,5-benzodioxepin-7-ylmethyl)-N-isobutyl pyrrolidine-3-carboxamide] | effectively decreased the glucose levels |
